Laboratory results as given in ChEMBL document CHEMBL4804284.

What was measured:
[1] = target: Casein kinase I isoform gamma-3 (Homo sapiens) (UniProt Q9Y6M4); assay: Inhibition of DNA-tagged human CSNK1G3 assessed as percent of control at 50000 nM by qPCR analysis relative to control; design: scale not given: the % may be the effect or the level left
[2] = target: cGMP-dependent protein kinase 2 (Homo sapiens) (UniProt Q13237); assay: Inhibition of DNA-tagged human PRKG2 assessed as percent of control at 50000 nM by qPCR analysis relative to control; design: scale not given: the % may be the effect or the level left
Sequence of cGMP-dependent protein kinase 2 (Homo sapiens) (Q13237 whole entry): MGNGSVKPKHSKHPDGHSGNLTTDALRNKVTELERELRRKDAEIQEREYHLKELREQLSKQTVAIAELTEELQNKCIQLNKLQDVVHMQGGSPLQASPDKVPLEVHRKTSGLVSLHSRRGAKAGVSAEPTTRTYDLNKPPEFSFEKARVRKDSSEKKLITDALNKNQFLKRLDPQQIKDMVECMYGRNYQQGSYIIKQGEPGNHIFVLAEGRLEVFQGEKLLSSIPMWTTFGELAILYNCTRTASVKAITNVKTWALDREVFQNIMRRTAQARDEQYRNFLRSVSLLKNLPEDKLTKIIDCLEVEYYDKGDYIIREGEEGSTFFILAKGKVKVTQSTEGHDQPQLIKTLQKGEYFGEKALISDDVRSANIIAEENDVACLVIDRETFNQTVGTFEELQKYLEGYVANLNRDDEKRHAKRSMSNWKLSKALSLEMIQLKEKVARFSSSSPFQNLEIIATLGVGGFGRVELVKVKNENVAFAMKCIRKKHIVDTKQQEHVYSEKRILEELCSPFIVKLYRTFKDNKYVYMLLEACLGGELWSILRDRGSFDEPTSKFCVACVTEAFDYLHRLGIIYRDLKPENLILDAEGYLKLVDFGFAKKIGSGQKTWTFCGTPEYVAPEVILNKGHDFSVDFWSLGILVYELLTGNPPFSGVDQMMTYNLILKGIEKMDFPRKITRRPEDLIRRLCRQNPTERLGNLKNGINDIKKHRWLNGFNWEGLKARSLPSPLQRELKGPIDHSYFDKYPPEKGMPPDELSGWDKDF

Sequence of Casein kinase I isoform gamma-3 (Homo sapiens) (Q9Y6M4 whole entry, looked up, canonical isoform): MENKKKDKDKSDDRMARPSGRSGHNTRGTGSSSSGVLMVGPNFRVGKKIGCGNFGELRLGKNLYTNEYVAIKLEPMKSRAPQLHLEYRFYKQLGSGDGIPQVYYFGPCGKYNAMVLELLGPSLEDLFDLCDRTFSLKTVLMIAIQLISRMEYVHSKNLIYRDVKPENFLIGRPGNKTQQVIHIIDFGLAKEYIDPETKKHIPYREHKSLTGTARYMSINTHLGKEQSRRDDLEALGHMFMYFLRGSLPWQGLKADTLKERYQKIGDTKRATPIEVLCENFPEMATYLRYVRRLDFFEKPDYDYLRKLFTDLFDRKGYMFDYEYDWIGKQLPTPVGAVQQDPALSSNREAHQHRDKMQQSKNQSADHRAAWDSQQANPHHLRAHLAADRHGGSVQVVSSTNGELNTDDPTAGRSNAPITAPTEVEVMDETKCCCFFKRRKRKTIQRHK

In the case of `CN1C(=O)/C(=C2/C(=O)Nc3ccccc32)c2ccccc21`, the Activity [1] is reported as 90% and the Activity [2] is reported as 94%.
